The record followed here is patent publication EP0420798B1, “Antimicrobial compositions” (Ciba Vision AG, Hettlingen, priority 1989, dated 1991).

The nature of series [1]: 4-week ocular local tolerance study in rabbits. The format is in vivo, pigmentierte Himalayakaninchen. The conditions noted are these: 0,01 % solution, 50 µl ten times daily at 45 min intervals into conjunctival sac of right eye for 4 weeks; histopathology at end; animals with conjunctival lesions and acanthosis/hyperkeratosis at margin of lower right eyelid. From the text:
Die bessere Augenverträglichkeit der Verbindungen der Formel I im Vergleich zu Benzalkoniumchlorid wird z.B. auch aus den Ergebnissen der im folgenden beschriebenen 4 Wochen dauernden okularen, lokalen Verträglichkeitsstudie beim Kaninchen deutlich: Verglichen wurden jeweils 0,01 %-ige Lösungen von N-Benzyl-N-(gemischtes C₈-C₁₈-Alkyl)-N,N-bis-(2-hydroxyethyl)-ammoniumchlorid und Benzalkoniumchlorid. Als Versuchstiere dienten pigmentierte Himalayakaninchen. Diesen wurden 4 Wochen lang zehnmal täglich (in 45 Minuten-Intervallen) jeweils 50 µl der entsprechenden Lösung in den Konjunktivalsack des rechten Auges verabreicht. Zur Kontrolle wurde in das linke Auge jeweils eine Vergleichslösung, die kein Konservierungsmittel enthielt, eingetropft. Die Tiere wurden am ersten und am fünften Behandlungstag ophthalmologisch untersucht. […] Dagegen wurden bei 4 von 6 mit Benzalkoniumchloridlösung behandelten Tieren Läsionen in der Konjunktiva und eine Akanthose und Hyperkeratose am Rand des unteren rechten Augenlids beobachtet. Die Benzalkoniumchloridlösung verursachte demnach Aenderungen am konjunktivalen Epithel, welche bei der erfindungsgemässen Lösung nicht auftraten. Damit ist überzeugend nachgewiesen, dass die Verbindungen der Formel I eine im Vergleich zu Benzalkoniumchlorid überraschend verbesserte Langzeitverträglichkeit im Auge besitzen.

In series [2] the test system is C. albicans. As to the kind of experiment: Preservative challenge test. The conditions noted are these: 0,1 mg/ml, pH 6, inoculum 9,9•10^5/ml. More on the design: key to Reduktion des Wachstums: k. W.: k.W.: kein Wachstum. The series is classed as cell-based. The source says: (§1) Die konservierende Wirkung der Verbindungen der Formel I wird z.B. aus den Ergebnissen des folgenden Konservierungsmittelbelastungstests deutlich: […]

Series [3] has as its system E. coli. Nature of the series: Preservative challenge test. The series is classed as cell-based. More on the design: key to Reduktion des Wachstums: k. W.: k.W.: kein Wachstum. The conditions noted are these: 0,1 mg/ml, pH 6, inoculum 1,5•10^6/ml.
Text: as §1

Series [4] deals with Ps. aeruginosa. As to the kind of experiment: Preservative challenge test. The conditions noted are these: 0,1 mg/ml, pH 6, inoculum 1,1•10^6/ml. More on the design: key: k. W.: k.W.: kein Wachstum. The format is cell-based.
Text: as §1

In series [5] the test system is St. aureus. Nature of the series: Preservative challenge test. The format is cell-based. On the set-up: key: k. W.: k.W.: kein Wachstum. The conditions noted are these: 0,1 mg/ml, pH 6, inoculum 1,4•10^6/ml.
Text: as §1

A short description of series [6]: 5-day ocular tolerance test in animals. The series is classed as in vivo, Kaninchen. The source says:
Die überraschenderweise verbesserte Augenverträglichkeit der Verbindungen der Formel I im Vergleich zu Benzalkoniumchlorid wird z.B. aus den Ergebnissen der im folgenden beschriebenen 5-Tage-Verträglichkeitsprüfung beim Tier deutlich: Verglichen wurden jeweils 0,01 %-ige Lösungen von Benzoxoniumchlorid und Benzalkoniumchlorid. Diese Lösungen wurden 5 Tage lang fünfmal (in 90 Minuten-Invervallen) in den Konjunktivalsack von Kaninchen eingetropft. Am Ende des Versuchs wurden die behandelten Augen auf Klinische Befunde, wie z.B. Rötungen der Konjunktiva, Korneatrübungen, Sekretion und Bindehautschwellungen, untersucht. Dabei ergaben sich die folgenden Resultate: Brenzoxoniumchlorid (≙ Verbindung der Formel I), 0,01 % 5 Instillationen/Tier/Tag im Abstand von jeweils 90 min keine Befunde Benzalkoniumchlorid (≙ Vergleichsverbindung), 0,01 % 5 Instillationen/Tier/Tag im Abstand von jeweils 90 min 4 Befunde

Take “N-Benzyl-N-(gemischtes C₈-C₁₈-Alkyl)-N,N-bis-(2-hydroxyethyl)-ammoniumchlorid”: in series [1], the “okulare Läsionen” value is recorded as “keine okularen Läsionen”.

With `CCCCCCCCCCCC[N+](CCO)(CCO)Cc1ccccc1.[Cl-]` [Benzoxoniumchlorid, N-Benzyl-N-(n-dodecyl)-N,N-bis-(2-hydroxyethyl)-ammoniumchlorid], the “Reduktion des Wachstums” value in series [2] (contact time 6 h), in series [2] (contact time 24 h), in series [3] (contact time 6 h), in series [3] (contact time 24 h), in series [4] (contact time 10 min) and in series [4] (contact time 6 h) was “k. W” throughout. Further, the “Reduktion des Wachstums” value in series [4] (contact time 24 h), in series [5] (contact time 10 min), in series [5] (contact time 6 h) and in series [5] (contact time 24 h) was “k. W” each time. Also, the killing at 100 µg/mL worked out at 100% in series [2] (Candida albicans, 10 min, contact time 10 min, read-out: Reduktion des Wachstums) and 100% in series [3] (Escherichia coli, 10 min, contact time 10 min, read-out: Reduktion des Wachstums). For the same compound, in series [6] (0,01 % solution, 5 instillations/animal/day at 90 min intervals into the conjunctival sac for 5 days, eyes examined at end of test (conjunctival redness, corneal opacity, secretion, conjunctival swelling)), the “Klinische Befunde” value is listed as “keine Befunde”.

As for “N-Benzyl-N-(C₈-C₁₈-alkyl)-N,N-dimethylammoniumchlorid [Benzalkoniumchlorid, reference compound]”, in series [6] (in vivo), the “Klinische Befunde” value is 4 Befunde. Also, the “okulare Läsionen” value in series [1] came to 4 von 6.
